Measured values from PMC6522510 (Nature Communications, 2019).
Like-named read-outs stand apart in the source and are kept apart here.

Experiments:
Set-up in all cases: species or system AML cell lines (8); Primary HTS, single concentration about 10 uM, Cell Titer Glo viability; log10 luminescence, per cent inhibition relative to cycloheximide control
Settings in all cases: 72 h, inhibitor
U937 = system: U937
MOLM-13 = system: MOLM-13
CHRF288-11 = system: CHRF288-11
CMS = system: CMS
ML-2 = system: ML-2
CMK = system: CMK
MV4-11 = system: MV4-11
M07e = system: M07e
[1] = relative to cycloheximide control, log10 luminescence
[2] = relative to cycloheximide control, log10 luminescence, U937 %inh, 10 µM
[3] = relative to cycloheximide control, log10 luminescence, MOLM-13 %inh, 10 µM
[4] = relative to cycloheximide control, log10 luminescence, CHRF288-11 %inh, 10 µM
[5] = relative to cycloheximide control, log10 luminescence, CMS %inh, 10 µM
[6] = relative to cycloheximide control, log10 luminescence, ML-2 %inh, 10 µM
[7] = relative to cycloheximide control, log10 luminescence, CMK %inh, 10 µM
[8] = relative to cycloheximide control, log10 luminescence, MV4-11 %inh, 10 µM
[9] = relative to cycloheximide control, log10 luminescence, M07e %inh, 10 µM

SMILES	U937 %inh (U937; [1]) [%]	MOLM-13 %inh (MOLM-13; [1]) [%]	CHRF288-11 %inh (CHRF288-11; [1]) [%]	CMS %inh (CMS; [1]) [%]	ML-2 %inh (ML-2; [1]) [%]	CMK %inh (CMK; [1]) [%]	MV4-11 %inh (MV4-11; [1]) [%]	M07e %inh (M07e; [1]) [%]	other results
Clc1ccc2c(N3CCN(CCCN4CCN(c5ccnc6cc(Cl)ccc56)CC4)CC3)ccnc2c1 [SJ000518980-1, PIPERAQUINE PHOSPHATE]	-2.593	-0.1677	-8.556	3.926	-2.97	-2.506	0.4168	-0.3802	–
CO[C@H]1C[C@@H]2CC[C@@H](C)[C@@](O)(O2)C(=O)C(=O)N2CCCC[C@H]2C(=O)O[C@H]([C@H](C)C[C@@H]2CC[C@@H](OC(=O)C(C)(CO)CO)[C@H](OC)C2)CC(=O)[C@H](C)/C=C(\C)[C@@H](O)[C@@H](OC)C(=O)[C@H](C)C[C@H](C)/C=C/C=C/C=C/1C [SJ000518987-1, TEMSIROLIMUS | CCI-779 | NSC-683864 | TORISEL | TEMSIROLIMUS (CCI-779, NSC 683864)]	25.81	6.723	29.37	21.7	9.499	14.34	11.74	19.45	–
Oc1ncc(N(CCCl)CCCl)c(O)n1 [SJ000518988-1, URACIL MUSTARD]	–	–	–	–	–	–	–	–	U937 %inh (U937; 10 µM): -0.2311%; MOLM-13 %inh (MOLM-13; 10 µM): -0.3938%; CHRF288-11 %inh (CHRF288-11; 10 µM): 3.507%; CMS %inh (CMS; 10 µM): 1.52%; ML-2 %inh (ML-2; 10 µM): 1.705%; CMK %inh (CMK; 10 µM): -4.305%; MV4-11 %inh (MV4-11; 10 µM): -1.171%; M07e %inh (M07e; 10 µM): 2.028%
CO[C@H]1O[C@@H]2O[C@@]3(C)CC[C@H]4[C@H](C)CC[C@@H]([C@H]1C)[C@@]24OO3 [SJ000519015-1]	20.8	2.58	-0.3434	7.594	5.533	0.2838	9.901	0.2631	–
CC[C@H](C)[C@@H]1NC(=O)[C@H](Cc2ccc(O)cc2)NC(=O)[C@@H](N)CSSC[C@@H](C(=O)N2CCC[C@H]2C(=O)N[C@@H](CC(C)C)C(=O)NCC(N)=O)NC(=O)[C@H](CC(N)=O)NC(=O)[C@H](CCC(N)=O)NC1=O [SJ000519020-1, OXYTOCIN]	-1.829	-2.698	-2.465	-0.7099	-0.7579	-2.47	1.343	0.04623	–
CCCN(CCc1ccc(O)cc1)C(=O)[C@@H](C)c1cccc(C(=O)c2ccccc2)c1 [SJ000520373-2, NMDA298-1]	10.97	13.67	9.808	3.128	1.661	9.519	11.33	11.25	–
C[C@@H](O)[C@@H]1NC(=O)[C@H](CCCCN)NC(=O)[C@@H](Cc2c[nH]c3ccccc23)NC(=O)[C@H](Cc2ccccc2)NC(=O)[C@@H](NC(=O)[C@H](N)Cc2ccccc2)CSSC[C@@H](C(=O)N[C@H](CO)[C@@H](C)O)NC1=O [SJ000520506-1, OCTREOTIDE ACETATE]	-3.486	0.6504	5.062	0.6202	0.4552	-5.736	0.9577	-0.4484	–
O=C1NC(=O)/C(=C\c2ccc3nccnc3c2)S1 [SJ000534768-3, PI 3-K-GAMMA-INHIBITOR | 648450-29-7 | AS-605240 | AS605240 | PI 3-KY INHIBITOR]	–	–	–	–	–	–	–	–	U937 %inh (U937; [2]): -0.7574%; MOLM-13 %inh (MOLM-13; [3]): 3.402%; CHRF288-11 %inh (CHRF288-11; [4]): -5.698%; CMS %inh (CMS; [5]): -2.146%; ML-2 %inh (ML-2; [6]): -0.2464%; CMK %inh (CMK; [7]): -0.8645%; MV4-11 %inh (MV4-11; [8]): 0.09671%; M07e %inh (M07e; [9]): 2.407%
O=C1NC(=O)/C(=C\c2ccc3nccnc3c2)S1 [SJ000534768-4, PI 3-K-GAMMA-INHIBITOR | 648450-29-7 | AS-605240 | AS605240 | PI 3-KY INHIBITOR]	–	–	–	–	–	–	–	–	U937 %inh (U937; [2]): 0.2634%; MOLM-13 %inh (MOLM-13; [3]): 1.092%; CHRF288-11 %inh (CHRF288-11; [4]): -3.707%; CMS %inh (CMS; [5]): 2.882%; ML-2 %inh (ML-2; [6]): 1.156%; CMK %inh (CMK; [7]): 2.377%; MV4-11 %inh (MV4-11; [8]): -0.9615%; M07e %inh (M07e; [9]): 2.923%
CCOC(=O)C1=C(C)NC(C)=C(C(=O)OCC)C1c1ccccc1/C=C/C(=O)OC(C)(C)C [SJ000541098-2, LACIDIPINE]	–	–	–	–	–	–	–	–	U937 %inh (U937; [2]): 12.91%; MOLM-13 %inh (MOLM-13; [3]): 10.16%; CHRF288-11 %inh (CHRF288-11; [4]): -1.312%; CMS %inh (CMS; [5]): -2.509%; ML-2 %inh (ML-2; [6]): 5.24%; CMK %inh (CMK; [7]): 1.983%; MV4-11 %inh (MV4-11; [8]): 6.96%; M07e %inh (M07e; [9]): -0.9057%
CCOC(=O)C1=C(C)NC(C)=C(C(=O)OCC)C1c1ccccc1/C=C/C(=O)OC(C)(C)C [SJ000541098-3, LACIDIPINE]	–	–	–	–	–	–	–	–	U937 %inh (U937; [2]): 2.874%; MOLM-13 %inh (MOLM-13; [3]): 4.748%; CHRF288-11 %inh (CHRF288-11; [4]): -0.4968%; CMS %inh (CMS; [5]): 2.32%; ML-2 %inh (ML-2; [6]): 5.833%; CMK %inh (CMK; [7]): 6.472%; MV4-11 %inh (MV4-11; [8]): 8.929%; M07e %inh (M07e; [9]): 5.059%
CC1(COc2ccc(CC3SC(=O)NC3=O)cc2)CCCCC1 (centres unmarked) [SJ000546494-1, CIGLITAZONE]	0.7442	-0.9508	3.672	-1.931	1.382	0.5377	4.011	-0.4942	–
Cc1cccc(Nc2cc(Cl)nc(SCC(=O)O)n2)c1C [SJ000546497-1, WY 14643 | WY-14643 | WY-14643 (PIRINIXIC ACID)]	0.764	0.03488	0.5396	-0.6556	1.805	-0.2043	2.638	2.884	–
CC(C)(c1ccc(OCC2CO2)cc1)c1ccc(OCC2CO2)cc1 (centres unmarked) [SJ000546498-1, BADGE]	-0.2101	-1.249	3.756	-0.9549	0.3622	0.4379	2.685	-0.5797	–
Oc1ccc(-c2c(-c3ccccc3)nn3c(C(F)(F)F)cc(C(F)(F)F)nc23)cc1 [SJ000546500-1, PHTPP]	-1.023	-1.733	-1.975	-0.8785	-0.1539	-2.936	0.8155	-1.02	–
CCCCCS(=O)(=O)CCCCCCCCCCn1c(-c2ccc(O)cc2)c(C)c2cc(O)ccc21 [SJ000546504-1, ZK 164015]	10.37	28.37	8.284	7.105	14.83	21	19.87	14.67	–
CCC[C@@H]1CC2=CC(=O)CC[C@]2(C)[C@H]2CC[C@@]3(C)[C@@H](CC[C@@]34CCC(=O)O4)[C@H]12 [SJ000546508-1, RU 26752]	-0.3202	-0.802	-0.7374	0.3867	2.095	-5.773	1.882	0.5508	–
CCC[C@@H]1CC2=CC(=O)CC[C@]2(C)[C@H]2CC[C@@]3(C)[C@@H](CC[C@@]3(O)CCC(=O)O)[C@H]12 [SJ000546509-1, RU 28318]	-0.6477	5.695	5.992	2.41	3.121	5.542	0.6325	2.635	–
COC(=O)/C=C/c1cccc(N(Cc2ccc(-c3ccc(N(C)C)cc3)cc2)C(=O)C2CCCCC2)c1 [SJ000546510-1, FEXARAMINE]	-1.175	-2.683	-3.158	0.8467	2.174	-0.2535	-0.6838	1.611	–
